# Measurements published in patent US5446130A, “Parathyroid hormone antagonists” (Mitsubishi Kasei Corporation, priority 1990, dated 1995).
# Where no end group is shown, it is not given here.
# Test system: output of cAMP produced by 5×10^-9 M hPTH (1-34) in cultured mouse osteoblast MC3T3-E1
# Test: Determination of PTH antagonism: inhibition of cAMP output induced by hPTH (1-34) in cultured mouse osteoblast MC3T3-E1
# Format: cell-based
# Procedure: PTH antagonism of the PTHrP derivatives (I) of the present invention was determined on the basis of the output of cAMP, using cultured mouse osteoblast MC3T3-E1.
# To a multiwell-culture plate of 12-well were inoculated 1×10^5 cells/well of the cultured cells, and the plate was incubated at 37° C. under 95% air-5% CO2 atmosphere for 3 days after addition of α-modified MEM containing 10% semi-fetal bovine serum as a medium. Then, the medium was exchanged with α-modified MEM containing 1% bovine serum albumin and the cultured cells were incubated for 6 hours. The medium was replaced by α-modified MEM containing various concentrations of the compound of the present invention, 5×10^-9 M hPTH (1-34), 1% bovine serum albumin and 1 mM isobutylmethylxanthin, and the mixture was incubated for 1 hour. The medium was separated from the cells, and the medium was used as a sample for assaying cAMP. The cells were shaken with 90% n-propyl alcohol to extract cAMP according to Yamaguchi et al., J. Biol. Chem., 262, 7711-7718 (1987) for preparing another sample.
# Assay of cAMP was performed using a commercially available cAMP-radioimmunoassay kit. […] Compound numbers in the tables correspond to those in Table 2.
# [1] = Table 3, 50% inhibition of cAMP output by 5×10^-9 M hPTH (1-34), ratio to control [Tyr34]-hPTH (3-34)-NH2 = 1
# [2] = Table 4, 50% inhibition of cAMP output by 5×10^-9 M hPTH (1-34), ratio to control Compound No. 15 = 1
compound,measurement,setting,value
"[Tyr^34 ]-hPTH (3-34)-NH2 [(Tyr34)--hPTH(3-34)--NH2, reference compound]",IC50 Ratio,[1],1
CC[C@H](C)[C@H](N)C(=O)N[C@@H](CCC(N)=O)C(=O)N[C@@H](CC(C)C)C(=O)N[C@@H](CCSC)C(=O)N[C@@H](Cc1c[nH]cn1)C(=O)N[C@@H](C)C(=O)N[C@@H](CC(C)C)C(=O)NCC(=O)N[C@@H](CCCCN)C(=O)N[C@@H](CO)C(=O)N[C@H](C(=O)N[C@@H](CCC(N)=O)C(=O)N[C@@H](CC(=O)O)C(=O)N[C@@H](CC(C)C)C(=O)N[C@@H](CCCNC(=N)N)C(=O)N[C@@H](CCCNC(=N)N)C(=O)N[C@@H](CCCNC(=N)N)C(=O)N[C@@H](Cc1ccccc1)C(=O)N[C@@H](Cc1ccccc1)C(=O)N[C@@H](CC(C)C)C(=O)N[C@@H](Cc1c[nH]cn1)C(=O)N[C@@H](Cc1c[nH]cn1)C(=O)N[C@@H](CC(C)C)C(=O)N[C@H](C(=O)N[C@@H](C)C(=O)N[C@@H](CCC(=O)O)C(=O)N[C@H](C(=O)N[C@@H](Cc1c[nH]cn1)C(=O)N[C@H](C(=O)N[C@@H](C)C(N)=O)[C@@H](C)O)[C@@H](C)CC)[C@@H](C)CC)[C@@H](C)CC [Compound No. 18],IC50 Ratio,[2],1.97
CCCCCCCCCCCCCC(=O)N[C@@H](CCC(N)=O)C(=O)N[C@@H](CC(C)C)C(=O)N[C@@H](CCSC)C(=O)N[C@@H](Cc1c[nH]cn1)C(=O)N[C@@H](CC(=O)O)C(=O)N[C@@H](CCCCN)C(=O)NCC(=O)N[C@@H](CCCCN)C(=O)N[C@@H](CO)C(=O)N[C@H](C(=O)N[C@@H](CCC(N)=O)C(=O)N[C@@H](CC(=O)O)C(=O)N[C@@H](CC(C)C)C(=O)N[C@@H](CCCNC(=N)N)C(=O)N[C@@H](CCCNC(=N)N)C(=O)N[C@@H](CCCNC(=N)N)C(=O)N[C@@H](Cc1ccccc1)C(=O)N[C@@H](Cc1ccccc1)C(=O)N[C@@H](CC(C)C)C(=O)N[C@@H](Cc1c[nH]cn1)C(=O)N[C@@H](Cc1c[nH]cn1)C(=O)N[C@@H](CC(C)C)C(=O)N[C@H](C(=O)N[C@@H](C)C(=O)N[C@@H](CCC(=O)O)C(=O)N[C@H](C(=O)N[C@@H](Cc1c[nH]cn1)C(=O)N[C@H](C(=O)N[C@@H](C)C(N)=O)[C@@H](C)O)[C@@H](C)CC)[C@@H](C)CC)[C@@H](C)CC [Compound No. 10],IC50 Ratio,[2],2.24
IQLMHDKGKSIQDLRRRFFLHKLIAEIHTA-NH2 [Compound No. 20],IC50 Ratio,[2],1.01
CC[C@H](C)[C@H](NC(=O)[C@H](CC(C)C)NC(=O)[C@H](Cc1c[nH]cn1)NC(=O)[C@H](Cc1c[nH]cn1)NC(=O)[C@H](CC(C)C)NC(=O)[C@H](Cc1ccccc1)NC(=O)[C@H](Cc1ccccc1)NC(=O)[C@H](CCCNC(=N)N)NC(=O)[C@H](CCCNC(=N)N)NC(=O)[C@H](CCCNC(=N)N)NC(=O)[C@H](CC(C)C)NC(=O)[C@H](CC(=O)O)NC(=O)[C@H](CCC(N)=O)NC(=O)[C@@H](NC(=O)[C@H](CO)NC(=O)[C@H](CCCCN)NC(=O)CNC(=O)[C@H](CCCCN)NC(=O)[C@H](CC(=O)O)NC(=O)[C@H](Cc1c[nH]cn1)NC(=O)[C@H](CCSC)NC(=O)[C@H](CC(C)C)NC(=O)[C@H](CCC(N)=O)NC(=O)[C@@H](N)CC(C)C)[C@@H](C)CC)C(=O)N[C@@H](C)C(=O)N[C@@H](CCC(=O)O)C(=O)N[C@H](C(=O)N[C@@H](Cc1c[nH]cn1)C(=O)N[C@H](C(=O)N[C@@H](C)C(N)=O)[C@@H](C)O)[C@@H](C)CC [Compound No. 9],IC50 Ratio,[2],1.02
CC[C@H](C)[C@H](NC(C)=O)C(=O)N[C@@H](CCC(N)=O)C(=O)N[C@@H](CC(C)C)C(=O)N[C@@H](CCSC)C(=O)N[C@@H](Cc1c[nH]cn1)C(=O)N[C@@H](CC(=O)O)C(=O)N[C@@H](CCCCN)C(=O)NCC(=O)N[C@@H](CCCCN)C(=O)N[C@@H](CO)C(=O)N[C@H](C(=O)N[C@@H](CCC(N)=O)C(=O)N[C@@H](CC(=O)O)C(=O)N[C@@H](CC(C)C)C(=O)N[C@@H](CCCNC(=N)N)C(=O)N[C@@H](CCCNC(=N)N)C(=O)N[C@@H](CCCNC(=N)N)C(=O)N[C@@H](Cc1ccccc1)C(=O)N[C@@H](Cc1ccccc1)C(=O)N[C@@H](CC(C)C)C(=O)N[C@@H](Cc1c[nH]cn1)C(=O)N[C@@H](Cc1c[nH]cn1)C(=O)N[C@@H](CC(C)C)C(=O)N[C@H](C(=O)N[C@@H](C)C(=O)N[C@@H](CCC(=O)O)C(=O)N[C@H](C(=O)N[C@@H](Cc1c[nH]cn1)C(=O)N[C@H](C(=O)N[C@@H](C)C(N)=O)[C@@H](C)O)[C@@H](C)CC)[C@@H](C)CC)[C@@H](C)CC [Compound No. 21],IC50 Ratio,[2],0.934
CC[C@H](C)[C@H](NC(=O)[C@H](CC(C)C)NC(=O)[C@H](Cc1c[nH]cn1)NC(=O)[C@H](Cc1c[nH]cn1)NC(=O)[C@H](CC(C)C)NC(=O)[C@H](Cc1ccccc1)NC(=O)[C@H](Cc1ccccc1)NC(=O)[C@H](CCCNC(=N)N)NC(=O)[C@H](CCCNC(=N)N)NC(=O)[C@H](CCCNC(=N)N)NC(=O)[C@H](CC(C)C)NC(=O)[C@H](CC(=O)O)NC(=O)[C@H](CCC(N)=O)NC(=O)[C@@H](NC(=O)[C@H](CO)NC(=O)[C@H](CCCCN)NC(=O)CNC(=O)[C@H](CC(C)C)NC(=O)[C@H](C)NC(=O)[C@H](Cc1c[nH]cn1)NC(=O)[C@H](CCSC)NC(=O)[C@H](CC(C)C)NC(=O)[C@H](CCC(N)=O)NC(=O)[C@@H](NC(=O)[C@H](CCC(=O)O)NC(=O)[C@@H](N)CO)[C@@H](C)CC)[C@@H](C)CC)C(=O)N[C@@H](C)C(=O)N[C@@H](CCC(=O)O)C(=O)N[C@H](C(=O)N[C@@H](Cc1c[nH]cn1)C(=O)N[C@H](C(=O)N[C@@H](C)C(N)=O)[C@@H](C)O)[C@@H](C)CC [Compound No. 1],IC50 Ratio,[1],0.003
same,concentration for 50% inhibition as fraction of that of [Tyr^34 ]-hPTH (3-34)-NH2,relative to [Tyr34]-hPTH (3-34)-NH2,below 1/300
same,concentration for 50% inhibition as fraction of that of hPTHrP (3-34)-NH2,relative to hPTHrP (3-34)-NH2,about 1/29
CC[C@H](C)[C@H](NC(=O)[C@H](CC(C)C)NC(=O)[C@H](Cc1c[nH]cn1)NC(=O)[C@H](Cc1c[nH]cn1)NC(=O)[C@H](CC(C)C)NC(=O)[C@H](Cc1ccccc1)NC(=O)[C@H](Cc1ccccc1)NC(=O)[C@H](CCCNC(=N)N)NC(=O)[C@H](CCCNC(=N)N)NC(=O)[C@H](CCCNC(=N)N)NC(=O)[C@H](CC(C)C)NC(=O)[C@H](CC(=O)O)NC(=O)[C@H](CCC(N)=O)NC(=O)[C@@H](NC(=O)[C@H](CO)NC(=O)[C@H](CCCCN)NC(=O)CNC(=O)[C@H](CCCCN)NC(=O)[C@H](CC(=O)O)NC(=O)[C@H](Cc1c[nH]cn1)NC(=O)[C@H](CCSC)NC(=O)[C@H](CC(C)C)NC(=O)[C@H](CCC(N)=O)NC(=O)[C@@H](N)Cc1ccccc1)[C@@H](C)CC)C(=O)N[C@@H](C)C(=O)N[C@@H](CCC(=O)O)C(=O)N[C@H](C(=O)N[C@@H](Cc1c[nH]cn1)C(=O)N[C@H](C(=O)N[C@@H](C)C(N)=O)[C@@H](C)O)[C@@H](C)CC [Compound No. 8],IC50 Ratio,[1],0.026
CC[C@H](C)[C@H](N)C(=O)N[C@@H](CCC(N)=O)C(=O)N[C@@H](CC(C)C)C(=O)N[C@@H](CCSC)C(=O)N[C@@H](Cc1c[nH]cn1)C(=O)N[C@@H](C)C(=O)N[C@@H](CCCCN)C(=O)NCC(=O)N[C@@H](CCCCN)C(=O)N[C@@H](CO)C(=O)N[C@H](C(=O)N[C@@H](CCC(N)=O)C(=O)N[C@@H](CC(=O)O)C(=O)N[C@@H](CC(C)C)C(=O)N[C@@H](CCCNC(=N)N)C(=O)N[C@@H](CCCNC(=N)N)C(=O)N[C@@H](CCCNC(=N)N)C(=O)N[C@@H](Cc1ccccc1)C(=O)N[C@@H](Cc1ccccc1)C(=O)N[C@@H](CC(C)C)C(=O)N[C@@H](Cc1c[nH]cn1)C(=O)N[C@@H](Cc1c[nH]cn1)C(=O)N[C@@H](CC(C)C)C(=O)N[C@H](C(=O)N[C@@H](C)C(=O)N[C@@H](CCC(=O)O)C(=O)N[C@H](C(=O)N[C@@H](Cc1c[nH]cn1)C(=O)N[C@H](C(=O)N[C@@H](C)C(N)=O)[C@@H](C)O)[C@@H](C)CC)[C@@H](C)CC)[C@@H](C)CC [Compound No. 17],IC50 Ratio,[2],1.17
CC[C@H](C)[C@H](NC(=O)[C@H](CC(C)C)NC(=O)[C@H](Cc1c[nH]cn1)NC(=O)[C@H](Cc1c[nH]cn1)NC(=O)[C@H](CC(C)C)NC(=O)[C@H](Cc1ccccc1)NC(=O)[C@H](Cc1ccccc1)NC(=O)[C@H](CCCNC(=N)N)NC(=O)[C@H](CCCNC(=N)N)NC(=O)[C@H](CCCNC(=N)N)NC(=O)[C@H](CC(C)C)NC(=O)[C@H](CC(=O)O)NC(=O)[C@H](CCC(N)=O)NC(=O)[C@@H](NC(=O)[C@H](CO)NC(=O)[C@H](CCCCN)NC(=O)CNC(=O)[C@H](CC(C)C)NC(=O)[C@H](CCC(N)=O)NC(=O)[C@H](Cc1c[nH]cn1)NC(=O)[C@H](CCSC)NC(=O)[C@H](CC(C)C)NC(=O)[C@H](CCC(N)=O)NC(=O)[C@@H](NC(=O)[C@H](CCC(=O)O)NC(=O)[C@@H](N)CO)[C@@H](C)CC)[C@@H](C)CC)C(=O)N[C@@H](C)C(=O)N[C@@H](CCC(=O)O)C(=O)N[C@H](C(=O)N[C@@H](Cc1c[nH]cn1)C(=O)N[C@H](C(=O)N[C@@H](C)C(N)=O)[C@@H](C)O)[C@@H](C)CC [Compound No. 2],IC50 Ratio,[1],0.003
IQLMHDKGKSIQDLRRRFFLRHLIAEIHTA-NH2 [Compound No. 19],IC50 Ratio,[2],0.934
"[Leu^11,D-Trp^12 ]-hPTHrP(7-34)-NH2 [(Leu11,D--Trp12)--hPTHrP(7-34)--NH2, reference compound]",IC50 Ratio,[2],3.91
